We go through 19 molecules from patent publication US4959361A, “Triazolo(4,3-A)(1,4)benzodiazepines and thieno (3,2-F)(1,2,4)triazolo(4,3-A)(1,4)diazepine compounds which have useful activity as platelet activating factor (PAF) antagonists” (Hoffmann-La Roche Inc., priority 1988, dated 1990).

pIC50: −log10 of the molar value. Like-named read-outs stand apart in the source and are kept apart here.

Assay [1] concerns the target T1, PAF-binding, dog platelets (Canis lupus familiaris, UniProt A0A8I3NSH0).
T1 construct: dog platelets; from tissue; host or cells: washed platelets from citrated dog blood
T1 sequence (A0A8I3NSH0 1-343): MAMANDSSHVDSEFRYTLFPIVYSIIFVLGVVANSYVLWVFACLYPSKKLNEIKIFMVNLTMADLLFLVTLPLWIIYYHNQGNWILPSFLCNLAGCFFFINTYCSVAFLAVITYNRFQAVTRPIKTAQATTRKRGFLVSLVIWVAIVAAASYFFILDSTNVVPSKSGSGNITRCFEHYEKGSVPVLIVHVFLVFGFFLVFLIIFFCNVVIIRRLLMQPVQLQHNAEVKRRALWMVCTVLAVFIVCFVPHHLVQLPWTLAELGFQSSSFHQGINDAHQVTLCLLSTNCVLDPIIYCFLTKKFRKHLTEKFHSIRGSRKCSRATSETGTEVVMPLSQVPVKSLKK
Put plainly: PAF binding assay (radiolabelled H-PAF, washed dog platelets). To be noted: 10 minutes at room temperature, read-out: PAF-binding IC-50. As to the method:
The binding assay was done in […] polyethylene microcentrifuge tubes (Beckman) containing 50 μl of an oil mixture of 2 parts Siliconol AR200 (Serva): 1 part Silicone Fluid (Arthur H. Thoma). Buffer, standards, or analogs (150 μl total volume) were added to the tubes. Radiolabelled H-PAF (50 μl) was then added to the tubes. The reaction was started by the addition of 50 μl of dog platelets (2×10^7 platelets). The tubes were capped, inverted several times to mix, and incubated for 10 minutes at room temperature. The platelets were separated from the incubation mixture by centrifuging 1 minute in a Beckman Microfuge B centrifuge. The tip of the microfuge tube was cut off, and the platelets were washed out of the tip with 200 μl of 50% methanol (Burdick and Jackson). Aquasol (NEN, 10 ml) was added and the radioactivity in the samples was determined using an LS 8100 Beckman liquid scintillation counter linked to a Techtran tape recorder Data was processed through an in-house computer system. Alternatively, radioactivity was determined using a Searle Mark III liquid scintillation counter linked to a Iso-Data microprocessor.
(b) preparation of platelets
Blood was collected from anesthesized or unanesthesized dogs into 50 ml plastic centrifuge tubes containing 3.8% sodium citrate as the anticoagulant (1 volume of citrate/9 volumes of blood). The red cells were removed by centrifugation for 15 minutes at 600 rpm (100-125 g) at room temperature. An aliquot of the supernatant platelet rich plasma (PRP) was saved for cell counting and the remainder was acidified to pH 6.5 with 0.15M citric acid. The platelet pellet was obtained after a 10 minute centrifugation at 2000 rpm (1000 g) at room temperature. Washed platelets were prepared by resuspending the platelet pellet once with pBS containing 1 mM EDTA, centrifuging as noted, and then resuspending the platelets in 0.1% BSA pBS. An aliquot of the washed platelets was counted. Platelets used for binding assays were diluted to 2×10^7 platelets/assay tube (4×10^8 platelets/ml). platelet countinq was done using a Royco Cell-Crit 921.

The subject of assay [2] is PAF Induced Bronchoconstriction. Kind of assay: PAF induced bronchoconstriction assay, oral testing. It counts as in vivo, guinea pig. Particulars: Cavia porcellus, po, 2 hr; for ED50: p.o., read-out: Bronchoconstriction ID-50 p.o. 2 hr; for inhibition in vivo at 0.3 mg/kg: at a dose of 0.3 mg/kg p.o.; for inhibition in vivo at 3 mg/kg: Table II (*), 3 mg/kg p.o.
For assay [3] the test system is unchanged. Kind of assay: PAF induced bronchoconstriction assay, intravenous testing. It is filed as in vivo, guinea pig. To be noted: for ED50: Cavia porcellus, iv, 1 min, i.v., 1 minute pretreatment, PAF 1 μg/kg i.v., read-out: Bronchoconstriction ID-50 i.v.; for % inhibition of bronchoconstriction: Table II (*), at 0. mg/kg i.v. (dose digit cut off). The procedure:
Male animals (Hartlet Strain, 400-500 g were anesthetized with urethane (2 g/kg, i.p.). Each animals' trachea was cannulated and the guinea pigs were respirated using a Harvard small animal rodent respirator (3.0 cc stroke volume, 40 breaths per min.). Tracheal pressure was recorded from a cannula inserted in the trachea and connected to a Statham pressure transducer.
The jugular vein was cannulated for administering compounds. Spontaneous breathing was arrested with succinylcholine (1.2 mg/kg, i.v.) administered 2 minutes prior to intravenous injection of platelet activating factor PAF).
For the intravenous testing, the guinea pig is given a 1-minute pretreatment with propranolol at a dose of 0.1 mg/kg intravenously. The test compound is administered with a 1 minute pretreatment prior to intravenous challenge with PAF. The animal is then challenged with a 1 μg/kg intravenous dose of PAF and the change in tracheal pressure is measured.
The change in tracheal pressure is determined by subtracting the steady state baseline achieved after administration of succinylcholine from the peak broncho. constriction seen after challenge with PAF. The mean is calculated for each test compound and compared to the mean of the control animals to give the percent inhibition of bronchoconstriction. The standard error is calculated as the standard error of the mean.

Where [4] appears, read: Table I, triazolothienodiazepines.
[5] abbreviates: Table II, triazolobenzodiazepines.

Turning to `Cc1nnc2n1-c1sc(C#CCn3c(=O)c4ccccc4c4ccccc43)cc1C(c1ccccc1Cl)=NC2`, the pIC50 in assay [1] (setting [4]) was 7.89. Further, the ED50 was found to be 0.012 mg/kg in assay [2] (Table I) and 0.016 mg/kg in assay [3] (Table I).

`Cc1nnc2n1-c1sc(C#CCn3c(=O)c4ccccc4c4ccccc4c3=O)cc1C(c1ccccc1Cl)=NC2`: the pIC50 in assay [1] (setting [4]) is 7.29. Besides, the ED50 in assay [2] (Table I) came out at 0.015 mg/kg; in assay [3] (Table I), 0.01 mg/kg.

As to `Cc1nnc2n1-c1sc(C#CCn3c(=O)n(C)c4ccccc43)cc1C(c1ccccc1Cl)=NC2`, in assay [1] (setting [4]), the pIC50 was 9.52. In addition, the ED50 in assay [2] (Table I) came to 0.043 mg/kg; in assay [3] (Table I) it was 0.004 mg/kg.

Take `Cc1nnc2n1-c1sc(C#CCN3C(=O)c4cccc5cccc3c45)cc1C(c1ccccc1Cl)=NC2`: in assay [1] (setting [4]), the pIC50 is 8.30. The ED50 in assay [2] (Table I) is 0.042 mg/kg; in assay [3] (Table I), below 0.1 mg/kg.

In the case of `Cc1nnc2n1-c1sc(C#CCN3C(=O)CCc4ccccc43)cc1C(c1ccccc1Cl)=NC2`, the pIC50 in assay [1] (setting [4]) was 9.70. For the same molecule, the ED50 in assay [2] (Table I) stood at 0.015 mg/kg; in assay [3] (Table I), 0.004 mg/kg.

In the case of `Cc1nnc2n1-c1sc(C#CCn3c(=O)n(-c4ccccc4)c4ccccc43)cc1C(c1ccccc1Cl)=NC2`, in assay [1] (setting [4]), the pIC50 was above 9.00. Besides, the ED50 in assay [2] (Table I) was found to be 0.015 mg/kg; in assay [3] (Table I), 0.008 mg/kg.

For the molecule `Cc1nnc2n1-c1sc(C#CCn3c(=O)c4c(ncn4C)n(C)c3=O)cc1C(c1ccccc1Cl)=NC2`, the pIC50 in assay [1] (setting [4]) is 8.15. The same molecule came in with an inhibition in vivo at 0.3 mg/kg in assay [2] (Table I) of 38%. Also, the ED50 in assay [3] (Table I) came to 0.018 mg/kg.

With `Cc1nnc2n1-c1sc(C#CCn3c(=O)ccc4ccccc43)cc1C(c1ccccc1Cl)=NC2`, the pIC50 in assay [1] (setting [4]) is 8.70. The values for the ED50 in assay [2] (Table I) and in assay [3] (Table I) were 0.016 mg/kg and 0.006 mg/kg, respectively.

On to `Cc1nnc2n1-c1sc(C#CCN3C(=O)CCc4cc(Cl)cc(Cl)c43)cc1C(c1ccccc1Cl)=NC2`, for which, in assay [1] (setting [4]), the pIC50 was above 9.00. Moreover, the ED50 in assay [2] (Table I) was found to be 0.021 mg/kg; in assay [3] (Table I) it was 0.006 mg/kg.

Turning to `Cc1nnc2n1-c1ccc(C#CCN3C(=O)c4ccccc4C3=O)cc1C(c1ccccc1F)=NC2`, the pIC50 in assay [1] (setting [5]) was 8.00. Further, the ED50 in assay [2] (Table II) stood at 0.52 mg/kg; in assay [3] (Table II), 0.013 mg/kg.

For the molecule `Cc1nnc2n1-c1sc(C#CCn3ccc4ccccc4c3=O)cc1C(c1ccccc1Cl)=NC2`, the pIC50 in assay [1] (setting [4]) is 9.00. Besides, the ED50 in assay [2] (Table I) amounted to 0.029 mg/kg; in assay [3] (Table I), 0.007 mg/kg.

Take `Cc1nnc2n1-c1sc(C#CCn3c4c(c5ccccc53)CCCC4)cc1C(c1ccccc1Cl)=NC2`: in assay [1] (setting [4]), the pIC50 is 8.15. The ED50 in assay [2] (Table I) was 0.006 mg/kg; in assay [3] (Table I), 0.005 mg/kg.

In the case of `Cc1nnc2n1-c1sc(C#CCN3Cc4cccc5cccc(c45)C3=O)cc1C(c1ccccc1Cl)=NC2`, in assay [1] (setting [4]), the pIC50 was 8.46. In addition, the ED50 in assay [2] (Table I) was determined as 0.009 mg/kg; in assay [3] (Table I) it was 0.01 mg/kg.

For the molecule `COC1c2ccccc2C(=O)N1CC#Cc1ccc2c(c1)C(c1ccccc1F)=NCc1nnc(C)n1-2` (stereo not drawn), in assay [1] (setting [5]), the pIC50 is 7.00. This molecule also came in with an inhibition in vivo at 3 mg/kg in assay [2] of 100%. In addition, the “% inhibition of bronchoconstriction” value in assay [3] is given as 99%.

Turning to `Cc1nnc2n1-c1ccc(C#CCN3C(=O)c4cccc5cccc3c45)cc1C(c1ccccc1F)=NC2`, the pIC50 in assay [1] (setting [5]) is 7.70. Besides, the inhibition in vivo at 3 mg/kg in assay [2] came to 57%. In addition, the “% inhibition of bronchoconstriction” value in assay [3] is 99%.

Regarding `Cc1nnc2n1-c1ccc(C#CCN3C(=O)CCc4ccccc43)cc1C(c1ccccc1F)=NC2`, in assay [1] (setting [5]), the pIC50 was 7.70. Besides, the values for the ED50 in assay [2] (Table II) and in assay [3] (Table II) were 0.44 mg/kg and 0.015 mg/kg, respectively.

As to `Cc1nnc2n1-c1sc(C#Cc3ccccn3)cc1C(c1ccccc1Cl)=NC2`, the pIC50 in assay [1] (setting [4]) is 6.60. Moreover, the inhibition in vivo at 0.3 mg/kg in assay [2] (Table I) is 5%. Moreover, the ED50 in assay [3] (Table I) came out at 0.056 mg/kg.

Regarding `Cc1nnc2n1-c1sc(C#CCn3c(=O)n(C)c(=O)c4ccccc43)cc1C(c1ccccc1Cl)=NC2`, the pIC50 in assay [1] (setting [4]) was 9.22. Moreover, the ED50 in assay [2] (Table I) is 0.017 mg/kg; in assay [3] (Table I), 0.007 mg/kg.

For the molecule `C#Cc1cc2c(s1)-n1c(C)nnc1CN=C2c1ccccc1Cl`, in assay [1] (setting [4]), the pIC50 was 8.00. 0.3 mg/kg produced 17% inhibition in vivo in assay [2] (Table I). For the same molecule, the ED50 in assay [3] (Table I) was 0.02 mg/kg.
